Results taken from patent US20150148311A1, “NON-SYSTEMIC TGR5 AGONISTS” (Ardelyx, Inc., priority 2011, published 2015).
pEC50: −log10 of the molar value. Where two headings read alike, the source gives them in different places.

Tests used:
human TGR5 = target: T1, human TGR5 (Homo sapiens, UniProt Q8TDU6); assay: Cell-based TGR5 assay, HEK293 cells stably expressing human TGR5, cAMP by HTRF; details: 0.05 nM to 10 μM; for EC50: HEK293 cells stably expressing human TGR5, 30 min at 37 C, read-out: pEC50 Human TGR5 (converted); for pEC50: pEC50 Human TGR5, HEK293 cells stably expressing human TGR5, 30 min at 37 C
T1 construct: expressed in transfected cells
T1 sequence (Q8TDU6 1-330): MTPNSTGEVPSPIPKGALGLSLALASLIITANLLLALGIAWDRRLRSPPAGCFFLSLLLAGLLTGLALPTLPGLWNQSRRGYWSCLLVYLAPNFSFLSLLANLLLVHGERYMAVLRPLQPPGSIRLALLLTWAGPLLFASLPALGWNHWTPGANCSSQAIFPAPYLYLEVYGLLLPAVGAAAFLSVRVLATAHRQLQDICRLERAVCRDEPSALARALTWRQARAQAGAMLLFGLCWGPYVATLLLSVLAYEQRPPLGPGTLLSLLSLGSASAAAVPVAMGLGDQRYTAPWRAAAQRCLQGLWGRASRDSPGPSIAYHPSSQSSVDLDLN
Procedure, shortened: (§1)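 cAMP HTRF read-out, converted to concentration via standard curve, after a 30 min, 37 °C compound exposure in HBSS with 10 mM HEPES pH 7.4 and 0.5 mM IBMX, compounds serially diluted 3-fold from 10 mM DMSO stock then 100-fold. Cells: stable human TGR5 HEK293, or NCI-H716 expressing TGR5 endogenously.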

total GLP-1 = assay: In vivo GLP-1 secretion, plasma total GLP-1 8 h post dose; details: Mus musculus, C57BL/6 male mice, food removed, plasma total GLP-1 eight hours after dosing, read-out: GLP-1 fold change over vehicle, Mean
Excerpt: (§2) Eight hours later, each mouse was heavily anesthetized with isoflurane, the peritoneal cavity was opened and the gallbladder, with its entire contents, was carefully excised and weighed. Blood was collected from the left ventricle of the heart and processed to plasma in EDTA-coated tubes containing aprotinin and DPPIV inhibitor for measurement of total GLP-1 (K150FCC; Meso Scales Discovery, Gaithersburg Md.).

C57BL/6 male mice = assay: In vivo gallbladder measurement (weight) 8 h post dose; details: 30 mg/kg; for Gallbladder weight/body weight fold change over vehicle, Significance: 8 h, vs. vehicle, one-way ANOVA, Dunnett's test; for Gallbladder weight/body weight fold change over vehicle, Mean: food removed, eight hours after dosing
Excerpt: as §2

[1] = Compound concentration in gall bladder, LC-MS/MS, 8 h post dose; assay type: in vivo; details: 30 mg/kg; for Number of Mice with Gallbladder Concentration < LLOQ: mice below LLOQ / mice in group; for concentration at 8 h: male, C57BL/6, mouse, with contents, mice, gallbladder homogenate, read-out: Mean Example Gallbladder Concentration
Experimental: as §2
Compound concentrations in the gall bladder were determined as follows: each mouse was heavily anesthetized with isoflurane, the peritoneal cavity was opened and the gallbladder, with its entire contents, was carefully excised. After harvest, gall bladders were homogenized in 100 μL water using a micro-homogenizer. Samples of homogenate were diluted 1:5 in water and precipitated with three volumes of neat acetonitrile. After centrifugation, supernatants were analyzed by LC-MS/MS. The level of test compound present in gall bladder samples was interpolated from a standard curve for each individual compound prepared in a matrix of gallbladder homogenate from vehicle treated animals.

[2] = Compound plasma concentration, LC-MS/MS, 8 h post dose; assay type: in vivo; details: 30 mg/kg; for Number of Mice with Plasma Concentration < LLOQ: mice below LLOQ / mice in group; for concentration at 8 h: male, C57BL/6, mouse, mice, plasma, read-out: Mean Example Plasma Concentration
Experimental: as §2
Plasma samples were treated with acetonitrile containing an internal standard, precipitated proteins removed by centrifugation. Supernatants were analyzed by LC-MS/MS and compound concentrations were determined by interpolated from a standard curve prepared in plasma.

human IBAT = target: T2, human IBAT (Homo sapiens, UniProt Q12908); assay: IBAT counter screen, [3H]taurocholic acid uptake in IBAT-transfected HEK293 cells; assay type: cell-based; details: for EC50: read-out: pEC50 human IBAT (converted)
T2 construct: expressed in transfected cells; host or cells: HEK293
T2 sequence (Q12908 1-348): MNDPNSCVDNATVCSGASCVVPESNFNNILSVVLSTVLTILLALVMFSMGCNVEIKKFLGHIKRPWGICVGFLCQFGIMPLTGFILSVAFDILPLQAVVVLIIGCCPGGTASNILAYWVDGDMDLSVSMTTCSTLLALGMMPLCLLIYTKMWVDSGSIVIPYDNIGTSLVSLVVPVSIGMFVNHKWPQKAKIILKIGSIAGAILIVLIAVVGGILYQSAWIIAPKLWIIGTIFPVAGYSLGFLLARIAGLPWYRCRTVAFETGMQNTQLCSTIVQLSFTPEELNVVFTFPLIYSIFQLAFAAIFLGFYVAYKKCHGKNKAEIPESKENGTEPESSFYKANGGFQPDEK
Experimental: Following a 40-min incubation, the solution was removed, and the cells were washed twice with uptake buffer. Cells were lysed by addition of 20 μL 0.1% Tween 80 followed by 100 μL scintillation fluid and counted using a TopCount (Perkin Elmer).

[3] = target: T3, endogenously expressed TGR5 in NCI H716 (Homo sapiens, UniProt Q8TDU6); assay: Cell-based TGR5 assay, NCI-H716 cells endogenously expressing human TGR5, cAMP by HTRF; details: 30 min at 37 C, 22 nM to 50 μM, read-out: pEC50 endogenously expressed TGR5 in NCI H716 (converted)
T3 construct: human caecum carcinoma cell line NCI-H716 which endogenously expresses human TGR5; endogenous in cells; host or cells: NCI-H716
T3 sequence (Q8TDU6 1-330): T1 sequence (Q8TDU6 1-330)
Procedure, shortened: as §1

## O=C(OC1(C(=O)N2CCN(C3CC3)c3ccccc32)CC1)c1cc(Cl)ccc1Cl [Example 166, 1-(4-cyclopropyl-1,2,3,4-tetrahydroquinoxaline-1-carbonyl)cyclopropyl 2,5-dichlorobenzoate]
Human TGR5
  EC50: < 100 nM
Total GLP-1
  response vs control in vivo at 30 mg/kg: 150%
C57BL/6 male mice
  Gallbladder weight/body weight fold change over vehicle, Significance: n.s.
  Gallbladder weight/body weight fold change over vehicle, Mean: 1.2 fold change over vehicle
[1]
  Number of Mice with Gallbladder Concentration < LLOQ: 8/8
  concentration at 8 h: < 12 nM
[2]
  Number of Mice with Plasma Concentration < LLOQ: 2/8
  concentration at 8 h: 1.4 ng/mL

## O=C(N1CCN(C2CC2)c2ccccc21)C1(NCc2cc(Cl)c(O)cc2Cl)CC1 [Example 165, (4-Cyclopropyl-3,4-dihydroquinoxalin-1(2H)-yl)(1-((2,5-dichloro-4-hydroxybenzyl)amino)cyclopropyl)methanone]
Human TGR5
  EC50: < 100 nM
Total GLP-1
  response vs control in vivo at 30 mg/kg: 120%
C57BL/6 male mice
  Gallbladder weight/body weight fold change over vehicle, Significance: n.s.
  Gallbladder weight/body weight fold change over vehicle, Mean: 1.5 fold change over vehicle
[1]
  Number of Mice with Gallbladder Concentration < LLOQ: 0/8
  concentration at 8 h: 600 nM
[2]
  Number of Mice with Plasma Concentration < LLOQ: 2/8
  concentration at 8 h: 2.2 ng/mL

## O=C(NCCCCCc1cc(Cl)c(CN2CSC[C@H]2C(=O)N2CCN(C3CC3)c3ccccc32)cc1Cl)NC(CO)(CO)CO [Example 198]
C57BL/6 male mice
  Gallbladder weight/body weight fold change over vehicle, Significance: * (* p < 0.05 vs. vehicle; One-way ANOVA followed by Dunnett's test)
  Gallbladder weight/body weight fold change over vehicle, Mean: 1.9 fold change over vehicle
[1]
  Number of Mice with Gallbladder Concentration < LLOQ: 0/8
  concentration at 8 h: 1300 nM
[2]
  Number of Mice with Plasma Concentration < LLOQ: 0/8
  concentration at 8 h: 3.6 ng/mL
Human IBAT
  EC50: > 25100 nM

## O=C([C@@H]1CSCN1Cc1cc(Cl)cc(O)c1Cl)N1CCN(C2CC2)c2ccccc21 [Example 169, (R)-(4-cyclopropyl-3,4-dihydroquinoxalin-1(2H)-yl)(3-(2,5-dichloro-3-hydroxybenzyl)thiazolidin-4-yl)methanone]
Human TGR5
  EC50: < 100 nM
Total GLP-1
  response vs control in vivo at 30 mg/kg: 150%
C57BL/6 male mice
  Gallbladder weight/body weight fold change over vehicle, Mean: 1.9 fold change over vehicle
[1]
  Number of Mice with Gallbladder Concentration < LLOQ: 0/8
  concentration at 8 h: 1200 nM
[2]
  Number of Mice with Plasma Concentration < LLOQ: 4/8
  concentration at 8 h: 2.1 ng/mL

## CN(C(=O)C1(OCc2cc(Cl)c(CCCCC(=O)NC[C@H](O)[C@@H](O)[C@H](O)[C@H](O)CO)cc2Cl)CC1)c1ccccc1OC1CC1 [Example 259]
Human TGR5
  EC50: < 100 nM
Total GLP-1
  response vs control in vivo at 30 mg/kg: 140%
C57BL/6 male mice
  Gallbladder weight/body weight fold change over vehicle, Significance: n.s.
  Gallbladder weight/body weight fold change over vehicle, Mean: 0.9 fold change over vehicle
[1]
  Number of Mice with Gallbladder Concentration < LLOQ: 0/8
  concentration at 8 h: 100 nM
[2]
  Number of Mice with Plasma Concentration < LLOQ: 6/8
  concentration at 8 h: 1.1 ng/mL

## Cn1c(C(=O)NC[C@H](O)[C@@H](O)[C@H](O)[C@H](O)CO)cnc1SCc1cc(Cl)c(CN2CSC[C@H]2C(=O)N2CCN(C3CC3)c3ccccc32)cc1Cl [Example 175, 2-((2,5-dichloro-4-(((R)-4-(4-cyclopropyl-1,2,3,4-tetrahydroquinoxaline-1-carbonyl)thiazolidin-3-yl)methyl)benzyl)thio)-1-methyl-N-((2S,3R,4R,5R)-2,3,4,5,6-pentahydroxyhexyl)-1H-imidazole-5-carboxamide]
[1]
  Number of Mice with Gallbladder Concentration < LLOQ: 0/8
[2]
  Number of Mice with Plasma Concentration < LLOQ: 7/8
Human IBAT
  EC50: > 25100 nM

## CN(Cc1cc(Cl)ccc1Cl)C1(C(=O)N2CCN(C3CC3)c3ccccc32)CC1 [Example 27, (4-cyclopropyl-3,4-dihydroquinoxalin-1(2H)-yl)(1-((2,5-dichlorobenzyl)(methyl)amino)cyclopropyl)methanone]
Human TGR5
  EC50: 126 to 1000 nM
[3]
  EC50: 1260 to 50100 nM
Human IBAT
  EC50: > 25100 nM

## O=C(O)CNC(=O)[C@H](CSSC[C@H](NC(=O)CC[C@H](NC(=O)CCCCc1cc(Cl)c(CN2CSC[C@H]2C(=O)N2CCN(C3CC3)c3ccccc32)cc1Cl)C(=O)O)C(=O)NCC(=O)O)NC(=O)CC[C@H](NC(=O)CCCCc1cc(Cl)c(CN2CSC[C@H]2C(=O)N2CCN(C3CC3)c3ccccc32)cc1Cl)C(=O)O [Example 241]
Human TGR5
  pEC50: > 7.00
[1]
  Number of Mice with Gallbladder Concentration < LLOQ: 8/8
  concentration at 8 h: < 60 nM
[2]
  Number of Mice with Plasma Concentration < LLOQ: 8/8
  concentration at 8 h: < 10 ng/mL
Human IBAT
  pEC50: < 4.60

## O=C(CCCCc1cc(Cl)c(CN2CSC[C@H]2C(=O)N2CCN(C3CC3)c3ccccc32)cc1Cl)N[C@@H](C(=O)O)[C@@H](O)[C@H](O)[C@H](O)CO [Example 240]
Human TGR5
  pEC50: > 7.00
[1]
  Number of Mice with Gallbladder Concentration < LLOQ: 0/8
  concentration at 8 h: 3920 nM
[2]
  Number of Mice with Plasma Concentration < LLOQ: 0/8
  concentration at 8 h: 28.1 ng/mL
Human IBAT
  EC50: > 25100 nM

## O=C(c1nccn1Cc1cc(Cl)ccc1Cl)N1CCN(C2CC2)c2ccccc21 [Example 62, (4-cyclopropyl-3,4-dihydroquinoxalin-1(2H)-yl)(1-(2,5-dichlorobenzyl)-1H-imidazol-2-yl)methanone]
Human TGR5
  EC50: 1260 to 50100 nM
[3]
  EC50: 1260 to 50100 nM
Human IBAT
  EC50: > 25100 nM

## CN(C(=O)C1(OCc2cc(Cl)c(CCCCCNC(=O)NC[C@H](O)[C@@H](O)[C@H](O)[C@H](O)CO)cc2Cl)CC1)c1ccccc1OC1CC1 [Example 258]
Human TGR5
  EC50: < 100 nM
Total GLP-1
  response vs control in vivo at 30 mg/kg: 110%
C57BL/6 male mice
  Gallbladder weight/body weight fold change over vehicle, Significance: n.s.
  Gallbladder weight/body weight fold change over vehicle, Mean: 1.1 fold change over vehicle
[1]
  Number of Mice with Gallbladder Concentration < LLOQ: 0/8
  concentration at 8 h: 700 nM
[2]
  Number of Mice with Plasma Concentration < LLOQ: 7/8
  concentration at 8 h: 9.4 ng/mL

## O=C(C1CCN(Cc2cc(Cl)ccc2Cl)C1)N1CCN(C2CC2)c2ccccc21 (stereo not drawn) [Example 57, (4-cyclopropyl-3,4-dihydroquinoxalin-1(2H)-yl)(1-(2,5-dichlorobenzyl)pyrrolidin-3-yl) methanone]
Human TGR5
  EC50: 1260 to 50100 nM
[3]
  EC50: 1260 to 50100 nM
Human IBAT
  EC50: > 25100 nM

## O=C(O)CNC(=O)CNC(=O)CNC(=O)CCCCc1cc(Cl)c(CN2CSC[C@H]2C(=O)N2CCN(C3CC3)c3ccccc32)cc1Cl [Example 228]
Human TGR5
  pEC50: > 7.00
[1]
  Number of Mice with Gallbladder Concentration < LLOQ: 0/8
  concentration at 8 h: 600 nM
[2]
  Number of Mice with Plasma Concentration < LLOQ: 8/8
  concentration at 8 h: < 0.5 ng/mL
Human IBAT
  EC50: > 25100 nM

## CN(C[C@H](O)[C@@H](O)[C@H](O)[C@H](O)CO)C(=O)CCCCc1cc(Cl)c(CN2CSC[C@H]2C(=O)N2CCN(C3CC3)c3ccccc32)cc1Cl [Example 238]
[1]
  Number of Mice with Gallbladder Concentration < LLOQ: 0/8
  concentration at 8 h: 4400 nM
[2]
  Number of Mice with Plasma Concentration < LLOQ: 3/8
  concentration at 8 h: 1.2 ng/mL
Human IBAT
  EC50: > 25100 nM
